From US20230295229A1, “PEPTIDE SELECTIVELY BINDING TO CANCER CELL-DERIVED EXOSOME, AND USES THEREOF” (KYUNGPOOK NATIONAL UNIVERSITY INDUSTRY-ACADEMIC COOPERATION …, priority 2020, published 2023)

Key:
[1] = tested on: A549 cell-derived exosomes; assay: inhibition of exosome internalization by magnetic removal of peptide-bound exosomes; assay type: cell-based, human; details: exosomes pretreated with biotin-labeled peptide, then removed with magnet
Method: In order to further identify the binding specificity of the ExoPep peptide to the A549 cell-derived exosome, the exosomes were labeled with a DID fluorescent dye, reacted with the biotin-labeled ExoPep peptide, and then conjugated with biotin by reacting the labeled avidin with magnetic particles. The complex of exosomes/biotin-peptide/avidin-magnetic particles prepared by the reaction was captured and removed using a magnet, and the remaining exosomes were treated to recipient cells (FIG. 5A).

[2] = tested on: MDA-MB231 cell-derived exosome / MDA-MB231 cells; assay: confocal microscopy of peptide internalization with CD63-GFP exosomes; assay type: cell-based; details: 10 uM TAMARA-conjugated peptide, 37° C., 1 hour
Method: In addition, an experiment was performed on exosomes derived from MDA-MB231 cells which were prepared to secrete exosomes showing green fluorescence by expressing CD63-GFP. GFP exosomes (green) and 10 uM TAMARA-conjugated peptide (red) were reacted with MDA-MB231 cells at 37° C. for 1 hour. Thereafter, after performing immobilization, DAPI nucleus staining, and mounting as described above, observation was followed using a confocal microscope (Zeiss, Oberkochen, Germany).

[3] = tested on: A549 tumor mouse blood-derived exosome; assay: flow cytometry binding of FITC-labeled ExoPep to blood-derived exosomes; details: FITC-labeled peptide, CD63 antibody beads
Method: A549 cells were injected into BALB/c nude mice, blood was collected after the tumor grew, and exosomes were isolated using an exosome isolation kit. To measure the binding of the peptide to the exosomes by flow cytometry, the exosomes were labeled with CD63 antibody beads. As a control group, exosomes isolated from the blood of normal mice were used. The exosome-bead complex labeled with CD63 beads was blocked by a reaction with 1% BSA/PBS at room temperature for 30 minutes to reduce non-specific binding. After washing, the FITC-labeled ExoPep peptides were bound to the exosome-bead complex at 4° C. for 30 minutes. After washing again with PBS, the binding of the peptide to the exosome-bead complex was analyzed using a flow cytometer (ThermoFisher Scientific, USA) (FIG. 7A).

[4] = tested on: exosomes derived from normal HEK293 cells / HEK293 cells; assay: confocal microscopy of peptide internalization with exosomes; assay type: cell-based; details: same manner
Method: Media of A549, HEK293, and MDA-MB231 cells were collected, exosomes were isolated through ultracentrifugation, and exosomes were labeled with DiD fluorescence reagent (red), followed by a reaction with ExoPep peptide (FITC label, green). After the reaction, the cells were immobilized, and the nuclei were stained with DAPI (blue) to analyze with confocal microscopy. More specifically, the isolated exosomes and DiD (1:200 dilution) were reacted on a stirrer at 37° C. for 30 minutes. After adding Exoquick reagent, condition was maintained at 4° C. for 30 minutes, and then DiD-labeled exosomes were precipitated by centrifugation at 13000 rpm for 3 minutes. Thereafter, a mixture of 10 uM FITC-conjugated peptide and DiD-labeled exosomes was reacted with A549 cells at 37° C. for 1 hour. After washing three times, immobilization was performed using 2% paraformaldehyde (PFA). After washing again, cells were treated with 4′-6-diamidino-2-phenylindole (DAPI) for nucleus staining. Finally, after mounting, observation was followed using a confocal microscope (Zeiss, Oberkochen, Germany).
On the other hand, the exosomes derived from normal HEK293 cells were treated in the same manner as described above and observed under a confocal microscope (Zeiss, Oberkochen, Germany).

[5] = tested on: exosomes derived from H460 lung cancer cells; assay: flow cytometry binding of FITC-labeled peptide to exosomes; details: 4° C.
Source text: (§1) 5 types of peptides (CTDTKIK, CRLSKKS, CRKVAKG, CRKRPAL, CAVRRKL) were synthesized based on the result of ELISA shown in FIG. 3. In order to investigate the binding of candidate peptides by FACS method, a peptide in which fluorescein isothiocyanate (FITC), a fluorescent substance, is conjugated to the carboxy terminus was synthesized by requesting Peptron Co. (Daegeon, Korea). Each peptide was synthesized by standard Fmoc method and purified by […]. In addition, FITC-labeled NSSSVDK peptide was used as a control.
(§2) In order to observe the peptide binding to the exosomes, biotin and exosomes were first combined in the same manner as described in FIG. 3, and then the exosomes were immobilized by binding with avidin beads. The exosome-bead complex was blocked for non-specific binding through treatment of 1% bovine serum albumin (BSA) dissolved in phosphate buffer for 30 minutes at room temperature. After washing, the FITC-labeled peptide was bound to the exosome-bead complex at 4° C. for 30 minutes. After the reaction, the binding of the peptide to the exosomes was analyzed using a flow cytometer.
(§3) On the other hand, in order to observe the peptide binding to the exosome-producing cells, 1×10^6 cells were first prepared. Each cell medium was treated with 1% BSA at 37° C. for 30 minutes. Thereafter, the FITC-labeled peptide was bound at 4° C. for 1 hour. After the reaction, the binding of the peptide to the cells was analyzed using a flow cytometer.

[6] = tested on: exosomes derived from Panc-1 pancreatic cancer cells; assay: as above; details: 4° C.
Source text: as §1, §2, §3

[7] = tested on: exosomes derived from MDA-MB231 breast cancer cells; assay: as above; details: 4° C.
Source text: as §1, §2, §3

[8] = tested on: exosomes derived from normal HEK293 cells; assay: as above; details: 4° C.
Source text: as §1, §2, §3

[9] = tested on: exosomes derived from A549 lung cancer cells; assay: as above; parameters: species or system human; details: 4° C.
Source text: as §1, §2
On the other hand, in order to observe the peptide binding to the exosome-producing cells, 1×10^6 cells were first prepared. […] After the reaction, the binding of the peptide to the cells was analyzed using a flow cytometer.

CRKVAKG [ExoPep]
internalization of exosomes into recipient cells [1]: significantly inhibited
peptide observed in cells (internalization with exosomes) [2]: more of which were observed in the cells than the control peptide
binding to tumor mouse blood-derived exosome versus normal mouse blood-derived exosome [3]: bound better
peptide observed in cells (internalization with exosomes) [4]: not observed in the cells
binding to exosomes compared to exosome-producing cell [5]: higher binding
binding to exosomes compared to exosome-producing cell [6]: higher binding
binding to exosomes compared to exosome-producing cell [7]: higher binding
binding to exosomes compared to exosome-producing cell [8]: very low binding, or no higher binding
binding to exosomes compared to exosome-producing cell [9]: higher binding
